Kd and IC50 data for 18 molecules are collected here from US9751861B2, “N1-(3,3,3-trifluoro-2-hydroxo-2-methylpropionyl)-piperidine derivatives as inhibitors of pyruvate dehydrogenase kinase” (MERCK PATENT GMBH, priority 2013, dated 2017).

The target in one test is T1, human PDHK2 (12-407) (Homo sapiens, UniProt Q15119).
T1 construct: The human PDHK2 (12-407) was produced in E. coli; His-tag (cleaved yes); made in house; host or cells: E. coli
Put plainly: Isothermal titration calorimetry (ITC) binding. To be noted: 30° C., pH 7.5. On the procedure:
Isothermal Titration Calorimetry
ITC measurements were performed with a VP-ITC micro calorimeter (Microcal, LLC/GE Healthcare Bio-Sciences AB, Uppsala, Sweden). In general titrations were performed by titrating the protein (50 μM) to the test compound (5 μM) in 12 μl injections. All binding experiments were carried out at 30° C. In general the test compounds were diluted form DMSO stock solutions into the measurement buffer with a maximum final concentration of 1% DMSO. The measurement buffer was 20 mM HEPES, 135 mM KCl, 1 mM TCEP, 2 mM MgCl2, 15 mM NaH2PO4, pH 7.5. The human PDHK2 (12-407) was produced in E. coli as his-tagged protein and purified by affinity chromatography. The tag was removed by side specific proteolysis. Before titration the protein buffer was changed to the measurement buffer containing the same DMSO concentration as the test compound dilution. ITC data analysis was performed using Origin 7 calorimetry software from the same supplier. For most measurements a binding model of one binding site was assumed. According to the applied mathematical model it is possible to calculate the binding constant (KA), the observed binding enthalpy (ΔH^obs) as well as the stoichiometry (N) of the formed complex. Preceding analysis the raw data was corrected for the heats of dilution by extrapolating from the saturation value from the end of titration. In order to allow for direct comparison between the respective experimental series and protein preparations the protein concentration was corrected by referencing titrations to a well behaved standard inhibitor. The apparent stoichiometry values defined the fraction of binding competent protein and compensated for relative errors in protein concentration measurements. This corrected protein concentration was used to set up ITC experiment series with test compounds. Any deviations from ideal 1:1 stoichiometry observed here were attributed to errors in compound concentration. This nominal compound concentration was corrected as well to achieve 1:1 stoichiometry in the fit.

The target in a further test is T2, PDHK2 (Homo sapiens, UniProt Q15119).
T2 construct: purchased Carna Bioscience
The test can be described thus: Biochemical activity testing of PDHK2: PDC inactivation assay. To be noted: human rec PDHK2, PDC from porcine heart, ATP 5 μM; read-out: IC50 PDHK2 (enzyme assay). The source says:
Biochemical Activity Testing of PDHK2: PDC Inactivation Assay
The biochemical activity assay for PDHK2 is based on the inactivation of PDC through phosphorylation by PDHK2. The assay is run in two steps: the enzymatic PDHK2 reaction in which isolated PDC is phosphorylated by PDHK2 with ATP as co-substrate and the PDC activity assay in which pyruvate and NAD are converted to acetyl-CoA and NADH. The PDC activity correlates to the increase in NADH and thereby is detectable directly via the increasing fluorescence signal (Exc 340 nm, Em 450 nm). Inhibition of PDHK2 results in a lower phosphorylation status and thereby a less decrease in activity of PDC and a stronger increase in NADH fluorescence signal.
The PDC inactivation assay is performed in Greiner 384-well microtiter plates and is used for high throughput screen. 4 μl of PDHK2 (human, rec, Carna Bioscience, 10 ng/μl-137 nM final concentration) and PDC (isolated from porcine heart, Sigma-Aldrich, 20 mU/ml final concentration) are incubated in the absence or presence of the test compound (10 dilution concentrations) for 30 min at room temperature in kinase buffer (15 mM potassium phosphate buffer, pH 7.0, 60 mM KCl, 1.5 mM DTT, 2.5 mM MgCl2, 0.0125% (w/v) BSA, 0.125% Pluronic F-68). The kinase reaction is started by the addition of 4 μl ATP substrate solution (fc 5 μM in kinase buffer). After 30 min incubation at 37° C. 40 μl of PDC reaction solution (100 mM Tris/HCl, pH 7.8, 0.5 mM EDTA, 1 mM MgCl2, 50 mM NaF, 0.25 mM Coenzyme A, 5 mM pyruvate, 1 mM NAD, 5 mM DTT, […] thiamine pyrophosphate) is added. The first fluorescence measurement is performed on a Perkin Elmer Envision (Exc 340 nm, Em 450 nm). The reaction is incubated for 45 min at room temperature. Afterwards a second fluorescence measurement is performed and the PDC activity is calculated by the difference between both measurements. As full value for the PDHK2 assay the inhibitor-free PDHK2 reaction is used. The pharmacological zero value used is DCA (Sigma-Aldrich) in a final concentration of 3 mM. The inhibitory values (IC50) were determined using either the program Symyx Assay Explorer® or Condosseo® from GeneData.

The test system of the next test is PDH-Elalpha (pSer300). The test can be described thus: Cellular immunofluorescence assay in HEK293T cells. Type of test: cell-based. The following applies: Homo sapiens, HEK-293T, 5 hours incubation, anti-PDH-E1alpha pSer300 immunofluorescence, read-out: IC50 (cell data). The protocol:
Cellular Assay for Determination of Compound Activities
Compound activities were determined in a cellular immunofluorescence assay. Human HEK293T cells were seeded into black 384-well plates with clear bottom and grown overnight.
Next day, test compounds were added to the wells and the plates incubated for 5 hours. Following this, cells were fixed with formaldehyde, permeabilised and blocked. The primary antibody, Anti-PDH-Elalpha (pSer300), AP1064 (Merck Millipore) was added and incubated overnight in the plate wells. Next, cells were washed and the seconday antibody, Alexa Fluor 488, goat anti-rabbit ab (A-11008, Invitrogen) was added together with Hoechst 33258 (H3569, Invitrogen) and incubated for 1 hour in the plate wells. Finally, cells were washed and the plates were measured on the laser scanning cytometer acumen hci (TTpLabtech).
The raw data were normalized against a pharmacological inhibitor control and dose response curves were generated by plotting the percent effect values using the software package Genedata screener (Genedata).

With `CC1CN(C(=O)[C@@](C)(O)C(F)(F)F)CCC1c1ccnn1-c1ccc(F)cc1F` (mixture of isomers) [Compound A31, (R)-1-{4-[2-(2,4-difluoro-phenyl)-2H-pyrazol-3-yl]-3-methyl-piperidin-1-yl}-3,3,3-trifluoro-2-hydroxy-2-methyl-propan-1-one], the Kd at human PDHK2 (12-407) is under 300 nM. Besides, the IC50 on PDHK2 and with PDH-Elalpha (pSer300) was under 300 nM throughout.
Regarding `C[C@@](O)(C(=O)N1CCC(c2ccnn2-c2ccccc2C#N)CC1)C(F)(F)F` [Compound A3, 2-{5-[1-((R)-3,3,3-Trifluoro-2-hydroxy-2-methyl-propionyl)-piperidin-4-yl]-pyrazol-1-yl}-benzonitrile], the equilibrium dissociation constant (Kd) on human PDHK2 (12-407) is 300 to 3000 nM. Also, the IC50 with PDH-Elalpha (pSer300) fell in the range of 300 to 3000 nM.
With `COc1ccccc1-n1nccc1C1CCN(C(=O)[C@@](C)(O)C(F)(F)F)CC1` [Compound A7, (R)-3,3,3-Trifluoro-2-hydroxy-1-{4-[2-(2-methoxy-phenyl)-2H-pyrazol-3-yl]-piperidin-1-yl}-2-methyl-propan-1-one], the Kd on human PDHK2 (12-407) lay in the range of 300 to 3000 nM. In the test with PDH-Elalpha (pSer300), the IC50 was under 300 nM.
`C[C@H]1CN(C(=O)[C@@](C)(O)C(F)(F)F)CC[C@H]1c1ccnn1-c1ccc(F)cc1F` [Compound A32, (R)-1-{(3R,4R)-4-[2-(2,4-difluoro-phenyl)-2H-pyrazol-3-yl]-3-methyl-piperidin-1-yl}-3,3,3-trifluoro-2-hydroxy-2-methyl-propan-1-one]: the concentration for half-maximal inhibition (IC50) on PDHK2 is under 300 nM; in the test on PDH-Elalpha (pSer300), 300 to 3000 nM.
For `C[C@@H]1CN(C(=O)[C@@](C)(O)C(F)(F)F)CC[C@@H]1c1ccnn1-c1ccc(F)cc1F` [Compound A33, (R)-1-{(3S,4S)-4-[2-(2,4-difluoro-phenyl)-2H-pyrazol-3-yl]-3-methyl-piperidin-1-yl}-3,3,3-trifluoro-2-hydroxy-2-methyl-propan-1-one], the IC50 on PDHK2 and in the test on PDH-Elalpha (pSer300) was under 300 nM throughout.
At human PDHK2 (12-407), `C[C@@](O)(C(=O)N1CCC(n2cnnc2-c2ccc(Cl)cc2)CC1)C(F)(F)F` [Compound A56, (R)-1-{4-[3-(4-Chloro-phenyl)-[1,2,4]triazol-4-yl]-piperidin-1-yl}-3,3,3-trifluoro-2-hydroxy-2-methyl-propan-1-one] displayed a dissociation constant (Kd) of 300 to 3000 nM. The IC50 on PDHK2 fell in the range of 300 to 3000 nM.
For the molecule `C[C@@](O)(C(=O)N1CCC(c2cnnn2-c2ccc(Cl)cc2)CC1)C(F)(F)F` [Compound A58, (R)-1-{4-[3-(4-Chloro-phenyl)-3H-[1,2,3]triazol-4-yl]-piperidin-1-yl}-3,3,3-trifluoro-2-hydroxy-2-methyl-propan-1-one], the dissociation constant (Kd) on human PDHK2 (12-407) was in the range of 300 to 3000 nM. Moreover, on PDHK2, the IC50 fell in the range of 300 to 3000 nM.
On human PDHK2 (12-407), `Cc1ccc(-n2nncc2C2CCN(C(=O)[C@@](C)(O)C(F)(F)F)CC2)c(F)c1` [Compound A60] had a Kd of 300 to 3000 nM. The IC50 on PDHK2 is 300 to 3000 nM.
In turn, `C[C@@](O)(C(=O)N1CCC(n2nccc2-c2ccccc2)CC1)C(F)(F)F` [Compound A66, (R)-3,3,3-Trifluoro-2-hydroxy-2-methyl-1-[4-(5-phenyl-pyrazol-1-yl)-piperidin-1-yl]-propan-1-one] gave a dissociation constant (Kd) on human PDHK2 (12-407) of 300 to 3000 nM. At PDHK2, the IC50 fell in the range of 300 to 3000 nM.
Molecule `C[C@@](O)(C(=O)N1CCC(c2nccn2-c2ccc(F)cc2)CC1)C(F)(F)F` [Compound A67, (R)-3,3,3-Trifluoro-1-{4-[1-(4-fluoro-phenyl)-1H-imidazol-2-yl]-piperidin-1-yl}-2-hydroxy-2-methyl-propan-1-one] had a Kd at human PDHK2 (12-407) of 300 to 3000 nM. Moreover, the IC50 on PDHK2 was in the range of 300 to 3000 nM.
Take `Cc1ccc(-n2ccnc2C2CCN(C(=O)[C@@](C)(O)C(F)(F)F)CC2)cc1` [Compound A68, (R)-3,3,3-Trifluoro-2-hydroxy-2-methyl-1-[4-(1-p-tolyl-1H-imidazol-2-yl)piperidin-1-yl]-propan-1-one]: the dissociation constant Kd on human PDHK2 (12-407) lay within 300 to 3000 nM. In addition, the IC50 at PDHK2 is 300 to 3000 nM.
In turn, `COc1ccc(-n2ccnc2C2CCN(C(=O)[C@@](C)(O)C(F)(F)F)CC2)cc1` [Compound A70, (R)-3,3,3-Trifluoro-2-hydroxy-1-{4-[1-(4-methoxy-phenyl)-1H-imidazol-2-yl]-piperidin-1-yl}-2-methyl-propan-1-one] yielded a Kd on human PDHK2 (12-407) of 300 to 3000 nM. For the same molecule, the half-maximal inhibitory concentration (IC50) at PDHK2 lay in the range of 300 to 3000 nM.
Take `C[C@@](O)(C(=O)N1CCC(c2nncn2-c2ccc(F)cc2)CC1)C(F)(F)F` [Compound A71, (R)-3,3,3-Trifluoro-1-{4-[4-(4-fluoro-phenyl)-4H-[1,2,4]triazol-3-yl]-piperidin-1-yl}-2-hydroxy-2-methyl-propan-1-one]: the Kd on human PDHK2 (12-407) was in the range of 300 to 3000 nM. Moreover, the 50% inhibitory concentration (IC50) on PDHK2 fell in the range of 300 to 3000 nM.
At human PDHK2 (12-407), `C[C@@](O)(C(=O)N1CCC(c2nncn2-c2ccccc2)CC1)C(F)(F)F` [Compound A72, (R)-3,3,3-Trifluoro-2-hydroxy-2-methyl-1-[4-(4-phenyl-4H-[1,2,4]triazol-3-yl)piperidin-1-yl]-propan-1-one] displayed a Kd of 300 to 3000 nM. Moreover, at PDHK2, the half-inhibitory concentration (IC50) fell in the range of 300 to 3000 nM.
As for `C[C@@](O)(C(=O)N1CCC(c2ccnn2C2CC2)CC1)C(F)(F)F` [Compound A74, (R)-1-[4-(2-Cyclopropyl-2H-pyrazol-3-yl)-1-piperidyl]-3,3,3-trifluoro-2-hydroxy-2-methyl-propan-1-one], the dissociation constant (Kd) at human PDHK2 (12-407) is under 300 nM. For the same molecule, at PDHK2, the IC50 fell in the range of 300 to 3000 nM.
The corresponding values for `COc1ccc(-n2ccc(C3CCN(C(=O)[C@@](C)(O)C(F)(F)F)CC3)n2)nn1` [Compound A105, (R)-3,3,3-Trifluoro-2-hydroxy-1-{4-[1-(6-methoxy-pyridazin-3-yl)-1H-pyrazol-3-yl]-piperidin-1-yl}-2-methyl-propan-1-one] are 300 to 3000 nM and 300 to 3000 nM.
The corresponding values for `C[C@H]1CN(C(=O)[C@@](C)(O)C(F)(F)F)CC[C@H]1c1ccnn1-c1ccc(F)cc1` [Compound A108, (R)-3,3,3-Trifluoro-1-{(3R,4R)-4-[2-(4-fluoro-phenyl)-2H-pyrazol-3-yl]-3-methyl-piperidin-1-yl}-2-hydroxy-2-methyl-propan-1-one] are 300 to 3000 nM and 300 to 3000 nM.
The corresponding values for `C[C@@](O)(C(=O)N1CCC(c2ccnn2-c2ccon2)CC1)C(F)(F)F` [Compound A122, (R)-3,3,3-Trifluoro-2-hydroxy-1-[4-(2-isoxazol-3-yl-2H-pyrazol-3-yl)-piperidin-1-yl]-2-methyl-propan-1-one] are 300 to 3000 nM and 300 to 3000 nM.

As a reminder, the Kd is the free concentration of one partner at which half of the binding sites on the other are occupied at equilibrium, for simple one-to-one binding. As usually defined, the IC50 is the concentration needed to halve the response being measured.
